No end group written: not given here.
Legend:
other oral streptococci = experiment: Binding of fluorescently labeled peptides to other oral streptococci; details: fluorescently labeled peptide
Source text: 1.2 Fluorescent labeling of peptides and fluorescence microscopy. Aliquots of CSPC16 (SEQ ID NO 2), CSP-fragment peptides (Table 2), and C16G2 (SEQ ID NO 4) were labeled with carboxyfluorescein (Sigma) as described previously (Eckert et al., 2006). After peptide cleavage but prior to the bacterial labeling assay, fluorescence intensity per μM peptide was checked fluorimetrically (λex=488 nm, λem=520 nm VersaFluor, BioRad) and found to be relatively similar (data not shown). To evaluate the level of peptide binding to bacteria, streptococci from an overnight culture (OD600 of 0.7-1.0) were washed with phosphate buffered saline (1×PBS), diluted 1:2 into 1×PBS, and exposed to peptide (16 μM) for 5 min at 25° C. After incubation with peptide, unbound agent was removed from the bacteria by three cycles of centrifugation (5 min, 16,000×g) and resuspension in 1×PBS. Labeling of oral streptococci was evaluated using brightfield and fluorescence microscopy (Nikon E400) at a 40× magnification. The digital images utilized for the semi-quantitative binding assessment were acquired with the factory-supplied software (SPOT, Diagnostics).

S. sanguinis biofilms = experiment: Single-species biofilm regrowth after peptide exposure, S. sanguinis; type: cell-based; details: 25 μM peptide, 1 min exposure
Description: (§1) 1.5 Examination of antimicrobial activity against single-species biofilms. To initiate biofilm formation, ˜1×10^7 bacteria per well (from overnight cultures) were seeded in TH medium (100 μL) to a 96-well flat-bottom plate. For all streptococci except S. mutans, the medium was supplemented with 0.5% (w/v) mannose and glucose. S. mutans UA159 biofilms were grown with 0.5% (w/v) sucrose. Plates were then centrifuged briefly to pellet the cells, and bacteria were incubated for 3-4 hours at 37° C. for biofilm formation. After incubation, the supernatant was carefully removed and biofilms were treated with 25 μM peptide in 1×PBS or 1×PBS alone for 1 min. The peptide solution was then removed and 100 μL TH was added to further dilute any remaining peptide. To minimize biofilm loss, cells were briefly centrifuged after TH addition, after which the supernatants were removed and fresh medium plus appropriate sugars were returned. Cells were then incubated anaerobically at 37° C. and biofilm growth was monitored over time by measuring absorbance at OD600 with a microplate spectrophotometer (Benchmark Plus, BioRad).

S. mutans biofilms = experiment: Single-species biofilm regrowth after peptide exposure, S. mutans; type: cell-based, Streptococcus mutans; details: 25 μM peptide, 1 min exposure
Description: as §1

S. mutans UA159 = experiment: Time-kill (bactericidal kinetics), planktonic S. mutans; type: cell-based, Streptococcus mutans; details: 25 μM, 1 min exposure
Description: 1.4 Determination of bactericidal kinetics. To determine the short term killing rate and selectivity of C16G2 and G2 we performed time-kill experiments, essentially as described previously (Eckert et al., 2006). S. mutans UA159, S. gordonii, or S. sanguinis were grown to log phase and diluted to ˜1×10^5 cfu/mL in growth medium. Under aerobic conditions, 25 μM G2 or C16G2 was added to the cell suspension and incubated at 25° C. At 1 min, 10 μL of cell suspension was removed, rescued by dilution into growth medium (1:50) and kept on ice. For plating, 20-500 μL of rescued cells were spread on growth medium agar plates and colonies were counted after overnight incubation at 37° C. under anaerobic conditions. We considered 60 cfu/mL as the detection limit for this assay. Values of surviving cfu/mL were expressed as the ratio of survivors from C16G2-treated cultures to cfu/mL from samples exposed to G2.

[1] = system: S. mutans JM11 within a multi-species biofilm; experiment: Multi-species biofilm in saliva, luciferase readout of S. mutans JM11; type: cell-based, Streptococcus mutans; details: 25 μM in saliva, 5 min exposure
Description: 1.6 Evaluation of antimicrobial activity against bacterial biofilm in saliva. For these experiments, we employed methods similar to those previously described (Bleher et al., 2003). A day prior to the assay, saliva was collected and pooled from 5 adult volunteers in the laboratory, diluted 1:4 in TH broth and centrifuged 2,000×g for 10 min. The supernatant was then filter sterilized (0.2 μm filter, Nunc) and stored at 4° C. A portion of pooled saliva was also diluted 1:2 in 1×PBS and processed as before. On the day of the assay, overnight cultures of JM11 and other oral streptococci were normalized to OD600 1.0 and ˜3×10^6 cfu/mL of each species was added to 10 mL of the TH-diluted saliva. […] At each time point, total biofilm growth was measured by reading absorbance at OD600, and the health of S. mutans within the population examined by relative luciferase expression (relative light unit, (RLU) production), as described previously (Merritt et al., 2005). […] RLU production was measured using a TD 20/20 luminometer (Turner Biosystems) and reported values were obtained from the average of 3 independent samples. […]
1.9 C16G2 can selectively eliminate S. mutans from a mixed species biofilm. […] The mixed-species biofilms were formed with saliva, and then peptides (25 μM) suspended in saliva were added for 5 min and removed, and the post-treatment growth of the biofilm was further monitored. […]

Substance: TFFRLFNRSFTQALGKGGGKNLRIIRKGIHIIKKY-NH2 [Peptide C16G2]
- binding to other oral streptococci (other oral streptococci): not to other oral streptococci
- biofilm re-growth after treatment (OD600) (S. sanguinis biofilms): grew similarly to untreated biofilms
- biofilm re-growth after treatment (OD600) (S. mutans biofilms): severely inhibited
- activity in comparison to G2 (surviving cfu/mL) (S. mutans UA159): over 20 fold
- S. mutans population within mixed-species biofilm (luciferase activity, RLU/OD600) [1]: dramatically reduce the S. mutans population
- duration of selective inhibition of S. mutans growth within multi-species biofilm [1]: ≥ 2 h

From US8680058B2, “Selectively targeted antimicrobial peptides and the use thereof” (priority 2006, dated 2014)
